Assay results reported in paper PMC7903134, “Human glucocerebrosidase mediates formation of xylosyl-cholesterol by β-xylosidase and transxylosidase reactions” (Journal of Lipid Research, 2021).

How the values were obtained:
[1] = target: T1, glucosylceramide synthase (GCS) (Homo sapiens, UniProt Q16739); assay: XylCer formation in lysates of HeLa, GCS KO and GCS-reexpressing cells, LC-MS/MS; assay type: cell-based
T1 construct: gene UGCG; GCS overexpressed in HeLa GCS KO cells, lysate
T1 sequence (Q16739 1-394): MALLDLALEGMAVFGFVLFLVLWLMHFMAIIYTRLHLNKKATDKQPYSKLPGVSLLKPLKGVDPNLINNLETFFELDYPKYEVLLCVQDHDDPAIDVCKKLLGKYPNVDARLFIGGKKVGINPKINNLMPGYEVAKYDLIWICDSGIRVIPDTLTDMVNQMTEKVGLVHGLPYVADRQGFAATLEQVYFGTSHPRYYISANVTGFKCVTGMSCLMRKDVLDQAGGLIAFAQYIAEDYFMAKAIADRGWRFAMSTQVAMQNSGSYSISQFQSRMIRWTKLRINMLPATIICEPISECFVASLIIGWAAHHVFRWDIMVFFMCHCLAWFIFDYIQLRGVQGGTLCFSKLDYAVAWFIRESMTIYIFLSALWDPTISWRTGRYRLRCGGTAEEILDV
Source text: formation in lysates of HeLa, GCS KO and GCS-reexpressing cells, LC-MS/MS on glucosylceramide synthase (GCS) | Expression of GCS in the GCS KO cells reinstalled their ability to produce […]

[2] = target: T2, glucocerebrosidase (GBA), recombinant human (rhGBA, Cerezyme) (Homo sapiens, UniProt P04062); assay: fluorogenic 4-MU-β-Xyl ([…]) and 4-MU-β-Glc ([…]) hydrolysis after […] min preincubation; assay type: biochemical
T2 construct: gene GBA1
T2 sequence (P04062 40-536): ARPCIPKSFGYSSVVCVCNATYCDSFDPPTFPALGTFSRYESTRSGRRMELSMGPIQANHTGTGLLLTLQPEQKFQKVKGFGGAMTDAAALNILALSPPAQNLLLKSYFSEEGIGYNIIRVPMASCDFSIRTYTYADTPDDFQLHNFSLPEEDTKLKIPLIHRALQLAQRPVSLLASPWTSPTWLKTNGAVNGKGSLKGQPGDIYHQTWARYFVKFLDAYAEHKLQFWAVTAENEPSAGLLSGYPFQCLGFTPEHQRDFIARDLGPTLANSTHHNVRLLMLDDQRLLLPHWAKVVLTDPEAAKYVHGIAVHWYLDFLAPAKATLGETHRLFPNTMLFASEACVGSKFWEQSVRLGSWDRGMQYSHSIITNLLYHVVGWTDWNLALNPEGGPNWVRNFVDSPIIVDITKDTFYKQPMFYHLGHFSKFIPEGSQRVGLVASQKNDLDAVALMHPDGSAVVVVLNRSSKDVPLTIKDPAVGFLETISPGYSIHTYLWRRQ

glucocerebrosidase (GBA) = target: T3, glucocerebrosidase (GBA) (Mus musculus, UniProt P17439); assay: irreversible GBA inhibition in RAW264.[…] cells ([…]); xylosylated cholesterol by LC-MS/MS; assay type: cell-based
T3 construct: gene Gba1; endogenous GBA in RAW264.7 cells
T3 sequence (P17439 20-515): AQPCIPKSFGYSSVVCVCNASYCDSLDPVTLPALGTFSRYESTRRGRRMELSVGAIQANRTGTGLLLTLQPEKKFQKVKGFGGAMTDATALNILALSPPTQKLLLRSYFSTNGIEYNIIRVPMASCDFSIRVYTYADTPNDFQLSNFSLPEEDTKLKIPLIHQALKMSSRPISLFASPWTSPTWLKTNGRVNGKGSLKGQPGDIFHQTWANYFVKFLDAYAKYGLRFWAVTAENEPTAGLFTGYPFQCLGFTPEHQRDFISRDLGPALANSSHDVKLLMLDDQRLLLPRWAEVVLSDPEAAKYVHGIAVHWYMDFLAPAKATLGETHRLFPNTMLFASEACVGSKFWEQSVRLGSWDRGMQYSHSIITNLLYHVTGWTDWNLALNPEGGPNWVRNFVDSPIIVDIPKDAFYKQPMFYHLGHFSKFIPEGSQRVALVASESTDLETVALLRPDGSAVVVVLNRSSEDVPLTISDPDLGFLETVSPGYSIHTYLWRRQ

GBA3 = target: T4, GBA3 (Homo sapiens, UniProt Q9H227); assay: hydrolysis and transxylosylation in lysates of GBA3-overexpressing HEK293 cells; assay type: cell-based
T4 construct: GBA3 overexpressed in HEK293 cells, lysate
T4 sequence (Q9H227 1-469): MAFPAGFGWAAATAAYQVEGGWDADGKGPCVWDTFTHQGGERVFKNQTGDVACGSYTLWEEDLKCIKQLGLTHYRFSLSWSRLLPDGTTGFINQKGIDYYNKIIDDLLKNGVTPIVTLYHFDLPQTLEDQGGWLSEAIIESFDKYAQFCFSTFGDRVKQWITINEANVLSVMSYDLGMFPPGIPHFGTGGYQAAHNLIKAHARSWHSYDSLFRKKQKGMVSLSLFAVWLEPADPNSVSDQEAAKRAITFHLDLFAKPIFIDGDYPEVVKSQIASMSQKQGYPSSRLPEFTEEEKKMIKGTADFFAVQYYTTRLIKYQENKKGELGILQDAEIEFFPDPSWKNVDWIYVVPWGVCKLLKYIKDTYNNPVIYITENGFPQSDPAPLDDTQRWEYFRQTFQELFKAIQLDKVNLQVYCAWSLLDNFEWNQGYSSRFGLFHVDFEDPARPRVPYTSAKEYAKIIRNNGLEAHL

[3] = target: T2, glucocerebrosidase (GBA), recombinant human (rhGBA, Cerezyme); assay: transxylosylation/transglucosylation acceptor, LC-MS/MS of products; assay type: biochemical

O=c1ccn([C@@H]2O[C@H](COP(=O)(O)OP(=O)(O)O[C@H]3OC[C@@H](O)[C@H](O)[C@H]3O)[C@@H](O)[C@H]2O)c(=O)[nH]1 [UDP-Xyl]
XylCer formation in lysates of HeLa, GCS KO and GCS-reexpressing cells, LC-MS/MS [1]: Expression of GCS in the GCS KO cells reinstalled their ability to produce XylCer

OC[C@@H]1[C@@H](O)[C@H](O)[C@@H](O)[C@@H]2O[C@H]12 [cyclophellitol]
IC50 [2]: 61 nM

O[C@H]1[C@H](O)[C@@H](O)[C@@H]2O[C@@H]2[C@@H]1O [conduritol B-epoxide, L-1,2-anhydro-myo-inositol]
irreversible GBA inhibition in RAW264.7 cells (300 μM); xylosylated cholesterol (glucocerebrosidase (GBA)): formation was prohibited by prior inhibition of GBA with CBE

Cc1cc(=O)oc2cc(O[C@@H]3OC[C@@H](O)[C@H](O)[C@H]3O)ccc12 [4-methylumbelliferyl β-D-xyloside]
hydrolysis and transxylosylation in lysates of GBA3-overexpressing HEK293 cells (GBA3): GBA3, albeit less prominent than GBA, was found to be able to hydrolyze 4-MU-β-Xyl

CC(C)CCC[C@@H](C)[C@H]1CC[C@H]2[C@@H]3CC=C4C[C@@H](O)CC[C@]4(C)[C@H]3CC[C@]12C [cholesterol]
transxylosylation/transglucosylation acceptor, LC-MS/MS of products [3]: we used natural cholesterol as the acceptor and 4-MU-β-Xyl as the donor
